Test results published in article PMC5745756, “N,N-disubstituted azines attenuate LPS-mediated neuroinflammation in microglia and neuronal apoptosis via inhibiting MAPK signaling pathways” (BMC Neuroscience, 2017).

What was measured:
Format in all cases: cell-based, murine
PGE2 = experiment: ELISA of PGE2 in LPS-activated BV-2 culture medium; conditions: 5, 10 and 20 µM, LPS 24 h
Protocol: (§1) To measure TNF-α, IL-6, and PGE2, BV-2 cells were seeded in a 24-well plate at a density of 3 × 10^5 cells/well. The cells were treated with LPS (100 ng/mL) in the presence or absence of compound 3 for 24 h, and the media was collected and centrifuged. IL-6, TNF-α, and PGE2 produced in microglial culture supernatants […] were measured by competitive enzyme immunoassay kits (R&D systems, Minneapolis, MN, USA) in accordance with the manufacturer’s protocol.
(§2) Fig. 2 Effect of compound 3 on LPS-induced iNOS and COX2 expression in BV-2 cells. BV-2 cells were pretreated with various concentrations (5, 10, and 20 µM) of compound 3 for 30 min and activated with 100 ng/mL LPS. After 6 h, the cells were collected for analysis of iNOS and COX-2 expression using western blot analysis (a–c). Similarly, LPS activation was made for 24 h as chronic BV2 activation and the iNOS and COX-2 expression was measured (d). α-Tubulin was used as the loading control. The densitometric analysis of bands was performed as described in the methods section. After 24 h, the culture medium was subsequently collected to measure the quantity of PGE2 (e), IL-6 (f), and TNF-α (g) using ELISA analysis. […]

IL-6 = experiment: ELISA of IL-6 in LPS-activated BV-2 culture medium; conditions: LPS 24 h
Protocol: as §1, §2

[1] = tested on: NO production in LPS-activated BV-2 cells; experiment: Nitrite (Griess) assay of NO production in LPS-activated BV-2 cells
Protocol: (§3) […] or MTT assay was performed as described by our previous publication with slight modification. In order to measure MTT and NO production, BV-2 cells were plated into a 96-well plate at a density of 4 × 10^4 cells/well. […] Then, nitrite (a soluble oxidation product of NO) was detected in the culture media by using the Griess reaction. The supernatant (50 µL) was collected and mixed with an equal volume of Griess reagent (1% sulfanilamide in phosphoric acid and 0.1% N-1-napthylethylenediamine dihydrochloride). The absorbance was measured at 570 nm by using a microplate reader. Sodium nitrite was used to create a standard curve from which the NO2 concentration was calculated. The cell viability was evaluated by spectrophotometrically measuring the reduction of yellow 3-[4,5-dimethylthiazol-2-yl]-2,5-diphenyltetrazolium bromide (MTT) to purple formazan crystals. MTT was dissolved in DMEM, added to the culture plate containing cells at a final concentration of 0.5 mg/mL, and incubated for 1 h. The medium containing the MTT solution was carefully removed, and 200 µL DMSO was added to each well. After solubilizing the stained cells to produce a formazan-colored solution, the optical density (OD) was measured on a microplate reader at 570 nm, and the results were expressed as a percentage of the LPS-treated group. The same plate was used for the NO and MTT assays. The cell supernatant was used for the NO assay, and the plated cells were used for the MTT assay.
(§4) The NO production and cell viability of LPS-activated BV-2 cells were measured after treatment with azine derivatives using Griess reagent and MTT assay, respectively.

[2] = tested on: extracellular signal-regulated kinase (ERK); experiment: Western blot of LPS-induced ERK phosphorylation in BV-2 cells; conditions: 5–20 µM; LPS 30 min, similar pattern at 24 h
Protocol: (§5) BV-2 cells were seeded in a 6-well plate at a density of 6 × 10^5 cells/well and exposed to LPS (100 ng/mL) in the presence or absence of compound 3 for required time. After treatment, cells were collected and lysed in cell lysis buffer (50 mM Tris–HCl, pH 8.0, 0.1% SDS, 150 mM NaCl, 1% NP-40, 0.02% sodium azide, 0.5% sodium deoxycholate, 100 µg/mL PMSF, and […]) for 24 h at 4 °C. The protein content was measured using a Bradford assay. Equal amounts of protein (30 µg) were separated using SDS-PAGE and transferred to a nitrocellulose membrane. The membrane was blocked for 1 h with 5% skim milk in tris-buffered saline with Tween-20 (TBST) and then incubated for 12 h with primary antibodies against α-tubulin (Sigma-Aldrich Cat. no: T5168), iNOS (Bioscience Cat. no: 610333, COX-2 (Santa Cruz Cat. no: sc-1745), ERK (Cell Signaling Cat. no: 9107s), pERK (Cell Signaling Cat. no: 5013s), JNK (Cell Signaling Cat. no: 9252s), pJNK (Cell Signaling Cat. no: 4671s), p38 (Cell Signaling Cat. no: 8690s), and pP38 (Cell Signaling Cat. no: 9211s), followed by incubation for 1 h with horseradish peroxidase-conjugated secondary antibodies (Cell Signaling) at 15 °C. […]
(§6) Fig. 3 Effect of compound 3 on MAPK pathway in LPS-induced BV-2 cells. […] The phosphorylation of p38, JNK, and ERK was measured by western blotting (a–c). […]

[3] = tested on: c-Jun N-terminal kinase (JNK); experiment: Western blot of LPS-induced JNK phosphorylation in BV-2 cells; conditions: 5–20 µM; LPS 30 min, similar pattern at 24 h
Protocol: as §5, §6

[4] = MTT cell viability of LPS-activated BV-2 cells; conditions: mouse, LPS-activated BV-2 microglial cells; 20 µM compound; percentage of the LPS-only treatment group; mean ± standard deviation, three experiments
Protocol: as §3, §4

BV-2 cells = experiment: MTT cell viability of LPS-activated BV-2 cells; conditions: at 20 µM
Protocol: as §3, §4

iNOS = experiment: Western blot of LPS-induced iNOS expression in BV-2 cells
Protocol: (§7) BV-2 cells were seeded in a 6-well plate at a density of 6 × 10^5 cells/well and exposed to LPS (100 ng/mL) in the presence or absence of compound 3 for required time. After treatment, cells were collected and lysed in cell lysis buffer (50 mM Tris–HCl, pH 8.0, 0.1% SDS, 150 mM NaCl, 1% NP-40, 0.02% sodium azide, 0.5% sodium deoxycholate, 100 µg/mL PMSF, and […]) for 24 h at 4 °C. The protein content was measured using a Bradford assay. Equal amounts of protein (30 µg) were separated using SDS-PAGE and transferred to a nitrocellulose membrane. […]
(§8) Fig. 2 Effect of compound 3 on LPS-induced iNOS and COX2 expression in BV-2 cells. […] Similarly, LPS activation was made for 24 h as chronic BV2 activation and the iNOS and COX-2 expression was measured (d). α-Tubulin was used as the loading control. […] After 24 h, the culture medium was subsequently collected to measure the quantity of PGE2 (e), IL-6 (f), and TNF-α (g) using ELISA analysis. […]

TNF-α = experiment: ELISA of TNF-α in LPS-activated BV-2 culture medium; conditions: 10 and 20 µM, LPS 24 h
Protocol: as §1, §2

COX-2 = experiment: Western blot of LPS-induced COX-2 expression in BV-2 cells
Protocol: as §7, §8

[5] = 5, 10 and 20 µM, 30 min pretreatment, LPS 100 ng/mL 6 h

COc1cc(/C=C/C=N/N=C/C=C/c2ccc(O)c(OC)c2)ccc1O [Compound 3, 4,4′-(1E,1′E,3E,3′E)-3,3′-(hydrazine-1,2-diylidene)bis(prop-1-ene-1-yl-3-ylidene)bis(2-methoxyphenol)]
LPS-activated PGE2 production (PGE2): reduced
IL-6 secretion (IL-6; 20 µM): noticeable activity
IL-6 secretion (IL-6; 5 and 10 µM): did not significantly inhibit
LPS-induced NO production ([1]; LPS-activated BV-2 cells): strongly inhibited
IC50 ([1]; Mus musculus, BV-2, 100 ng/mL LPS, 24 h, Griess reaction, read-out: IC50, concentration that caused 50% inhibition of NO production in LPS-activated BV-2 cells): 12.5 µM
Phosphorylation of ERK [2]: did not alter
LPS-induced phosphorylation of JNK [3]: significantly inhibited
viability at 24 h, 20 µM [4]: 101 ± 2.53%
Cytotoxicity to BV-2 cells (BV-2 cells): without cytotoxicity
Expression of iNOS (iNOS; [5]): significantly reduced
LPS induced iNOS activation, chronic (iNOS; 24 h chronic LPS activation): dramatically rescued
TNF-α secretion (TNF-α): significant reduction
Expression of COX-2 (COX-2; [5]): significantly reduced
LPS induced COX-2 activation, chronic (COX-2; 24 h chronic LPS activation): dramatically rescued
